Experimental data published in patent US9686985B2, “Fungicide N-cycloalkyl-N-bicyclicmethylene-carboxamide derivatives” (BAYER INTELLECTUAL PROPERTY GMBH, priority 2012, dated 2017).
Like-named read-outs stand apart in the source and are kept apart here.

Key:
Uromyces appendiculatus = experiment: Example G: in vivo preventive test on Uromyces appendiculatus (bean rust); details: bean plants; for protection: summary over doses of 500 ppm and 100 ppm; for Efficacy: table G2
Procedure: Example G: In Vivo Preventive Test on Uromyces appendiculatus (Bean Rust) […] Bean plants (“Saxa” variety), sown in starter cups on a 50/50 peat soil pozzolana substrate and grown at 24° C., are treated at the 2 leaf stage (9 cm height) by spraying with the active ingredient prepared as described above. Plants, used as controls, are treated with the mixture of acetone/tween/DMSO/water not containing the active material. After 24 hours, the plants are contaminated by spraying the leaves with an aqueous suspension of Uromyces appendiculatus spores (150 000 spores per mL). The spores are collected from infected plants and are suspended in water containing 2.5 mL/L of Tween 80 at 10%. The contaminated bean plants are incubated for 24 hours at 20° C. and at 100% relative humidity, and then for 10 days at 20° C. and at 70-80% relative humidity. Grading (% of efficacy) is carried out 11 days after the contamination, in comparison with the control plants.

[1] = log P by HPLC on reversed-phase column (EEC Directive 79/831 Annex V.A8); type: physicochemical; details: for logP: Table 1
Procedure: In table 1, the log P values were determined in accordance with EEC Directive 79/831 Annex V.A8 by HPLC (High Performance Liquid Chromatography) on a reversed-phase column (C 18), using the method described below: Temperature: 40° C.; Mobile phases: 0.1% aqueous formic acid and acetonitrile; linear gradient from 10% acetonitrile to 90% acetonitrile. Calibration was carried out using unbranched alkan-2-ones (comprising 3 to 16 carbon atoms) with known log P values (determination of the log P values by the retention times using linear interpolation between two successive alkanones). lambda-max-values were determined using UV-spectra from 200 nm to 400 nm and the peak values of the chromatographic signals.

Pyrenophora teres = experiment: Example N: in vivo preventive test on Pyrenophora teres (barley); details: table N; 500 ppm; barley plants; grading 14 days after contamination
Procedure: Example N: In Vivo Preventive Test on Pyrenophora teres (Barley) […] Barley plants (“Plaisant” variety), sown in starter cups on a 50/50 peat soil pozzolana substrate and grown at 22° C., are treated at the 1 leaf stage (10 cm height) by spraying with the active ingredient prepared as described above. Plants, used as controls, are treated with the mixture of acetone/tween/DMSO/water not containing the active material. After 24 hours, the plants are contaminated by spraying the leaves with an aqueous suspension of Pyrenophora teres spores (12 000 spores per mL). The spores are collected from a 12-day-old culture. The contaminated barley plants are incubated for 48 hours at 20° C. and at 100% relative humidity, and then for 12 days at 20° C. at 70-80% relative humidity. Grading (% of efficacy) is carried out 14 days after the contamination, in comparison with the control plants.

Alternaria brassicae = experiment: Example D: in vivo preventive test on Alternaria brassicae (leaf spot on radish); details: table D; 500 ppm; radish plants; grading 6 days after contamination
Procedure: Example D: In Vivo Preventive Test on Alternaria brassicae (Leaf Spot on Radish) […] Radish plants (“Pernod Clair” variety), sown in starter cups on a 50/50 peat soil pozzolana substrate and grown at 17° C., are treated at the cotyledon stage by spraying with the active ingredient prepared as described above. Plants, used as controls, are treated with the mixture of acetone/tween/DMSO/water not containing the active material. After 24 hours, the plants are contaminated by spraying the cotyledons with an aqueous suspension of Alternaria brassicae spores (50 000 spores per mL). The spores are collected from a 15-day-old culture. The contaminated radish plants are incubated at 20° C. and at 100% relative humidity. Grading (% of efficacy) is carried out 6 days after the contamination, in comparison with the control plants.

[2] = HPLC C18, 40° C., 0.1% aqueous formic acid and acetonitrile gradient
[3] = reversed-phase C18 HPLC column, Table 2 (amines IIf), HPLC C18, 40° C., 0.1% aqueous formic acid and acetonitrile gradient, read-out: logP

For Cn1cc(C(=O)N(CC2CCc3ccccc32)C2CC2)c(C(F)F)n1 (stereo not shown) [CMP1, N-cyclopropyl-3-(difluoromethyl)-N-(2,3-dihydro-1H-inden-1-ylmethyl)-1-methyl-1H-pyrazole-4-carboxamide, reference compound], the protection (Uromyces appendiculatus) was “high (at least 80%) to no protection”, the Efficacy (Uromyces appendiculatus; dose 100 ppm) was 0% and the Efficacy (Uromyces appendiculatus; dose 500 ppm) was 13%.
For Cc1cccc2c1CCC2CN(C(=O)c1cn(C)nc1C(F)F)C1CC1 (stereo not shown) [CMP2, N-cyclopropyl-3-(difluoromethyl)-1-methyl-N-[(4-methyl-2,3-dihydro-1H-inden-1-yl)methyl]-1H-pyrazole-4-carboxamide, reference compound], the protection (Uromyces appendiculatus) was “high (at least 80%) to no protection”, the Efficacy (Uromyces appendiculatus; dose 100 ppm) was 0% and the Efficacy (Uromyces appendiculatus; dose 500 ppm) was 80%.
For Cc1ccc2c(c1)CCC2CN(C(=O)c1cn(C)nc1C(F)F)C1CC1 (stereo not shown) [CMP3, N-cyclopropyl-3-(difluoromethyl)-1-methyl-N-[(5-methyl-2,3-dihydro-1H-inden-1-yl)methyl]-1H-pyrazole-4-carboxamide, reference compound], the protection (Uromyces appendiculatus) was “high (at least 80%) to no protection”, the Efficacy (Uromyces appendiculatus; dose 100 ppm) was 0% and the Efficacy (Uromyces appendiculatus; dose 500 ppm) was 34%.
With Cn1cc(C(=O)N(CC2CCc3c(F)cccc32)C2CC2)c(C(F)F)n1 (stereo not shown) [CMP4, N-cyclopropyl-3-(difluoromethyl)-N-[(4-fluoro-2,3-dihydro-1H-inden-1-yl)methyl]-1-methyl-1H-pyrazole-4-carboxamide, reference compound] the protection (Uromyces appendiculatus) was “high (at least 80%) to no protection”, the Efficacy (Uromyces appendiculatus; dose 100 ppm) was 0% and the Efficacy (Uromyces appendiculatus; dose 500 ppm) was 6%.
In the case of Cn1cc(C(=O)N(CC2CC(C)(C)c3ccccc32)C2CC2)c(C(F)F)n1 (stereo not shown) [CMP5, N-cyclopropyl-3-(difluoromethyl)-N-[(3,3-dimethyl-2,3-dihydro-1H-inden-1-yl)methyl]-1-methyl-1H-pyrazole-4-carboxamide, reference compound], the protection (Uromyces appendiculatus) is reported as “high (at least 80%) to no protection” and the Efficacy (Uromyces appendiculatus; dose 100 ppm) is reported as 31%.
With Cn1cc(C(=O)N(CC2CCc3cc(Cl)ccc32)C2CC2)c(C(F)F)n1 (stereo not shown) [CMP6, N-[(5-chloro-2,3-dihydro-1H-inden-1-yl)methyl]-N-cyclopropyl-3-(difluoromethyl)-1-methyl-1H-pyrazole-4-carboxamide, reference compound] the protection (Uromyces appendiculatus) was “high (at least 80%) to no protection”, the Efficacy (Uromyces appendiculatus; dose 100 ppm) was 0% and the Efficacy (Uromyces appendiculatus; dose 500 ppm) was 19%.
With Cn1cc(C(=O)N(CC2CCc3cccc(Cl)c32)C2CC2)c(C(F)F)n1 (stereo not shown) [CMP7, N-[(7-chloro-2,3-dihydro-1H-inden-1-yl)methyl]-N-cyclopropyl-3-(difluoromethyl)-1-methyl-1H-pyrazole-4-carboxamide, reference compound] the protection (Uromyces appendiculatus) was “high (at least 80%) to no protection”, the Efficacy (Uromyces appendiculatus; dose 100 ppm) was 0% and the Efficacy (Uromyces appendiculatus; dose 500 ppm) was 0%.
For Cn1nc(C(F)F)c(C(=O)N(CC2CCc3cccc(Cl)c32)C2CC2)c1Cl (stereo not shown) [I.15], the logP [1, 2] was 3.96 and the Efficacy (Pyrenophora teres) was 71%.
Compound Cn1nc(C(F)F)c(C(=O)N(CC2CCc3cccc(Br)c32)C2CC2)c1Cl (stereo not shown) [I.22] has a logP [1, 2] of 4.08.
CC1CCC(CN(C(=O)c2c(C(F)F)nn(C)c2Cl)C2CC2)c2ccccc21 (stereo not shown) [I.25] showed a logP [1, 2] of 4.11, an Efficacy (Pyrenophora teres) of 94% and an Efficacy (Alternaria brassicae) of 94%.
Cn1nc(C(F)F)c(C(=O)N(CC2CCCc3cccc(Cl)c32)C2CC2)c1Cl (stereo not shown) [I.29] gave a logP [1, 2] of 4.26 and an Efficacy (Pyrenophora teres) of 88%.
Compound Cn1nc(C(F)F)c(C(=O)N(CC2CCOc3ccccc32)C2CC2)c1Cl (stereo not shown) [I.32] has a logP [1, 2] of 3.17 and an Efficacy (Pyrenophora teres) of 88%.
Work on Cc1cc(C)c2c(c1)C(CN(C(=O)c1c(C(F)F)nn(C)c1F)C1CC1)CCC2 (stereo not shown) [I.37, N-cyclopropyl-3-(difluoromethyl)-N-[(5,7-dimethyl-1,2,3,4-tetrahydronaphthalen-1-yl)methyl]-5-fluoro-1-methyl-1H-pyrazole-4-carboxamide] yielded a chromatographic logP [1] of 4.44.
COc1cccc2c1CCCC2CN(C(=O)c1c(C(F)F)nn(C)c1F)C1CC1C (stereo not shown) [I.38] gave a logP [1, 2] of 4.06.
With Cn1nc(C(F)F)c(C(=O)N(CC2(C)CCCc3ccccc32)C2CC2)c1F (stereo not shown) [I.39] the logP [1, 2] was 3.96.
c1ccc2c(c1)CCC2CNC1CC1 (stereo not shown) [IIf.1, N-(2,3-dihydro-1H-inden-1-ylmethyl)cyclopropanamine] gave a chromatographic logP [1] of 0.75.
For Cc1cccc2c1CCC2CNC1CC1 (stereo not shown) [IIf.2, N-[(4-methyl-2,3-dihydro-1H-inden-1-yl)methyl]cyclopropanamine], the chromatographic logP [1] was 1.
Cc1ccc2c(c1)CCC2CNC1CC1 (stereo not shown) [IIf.3, N-[(5-methyl-2,3-dihydro-1H-inden-1-yl)methyl]cyclopropanamine] gave a chromatographic logP [1] of 0.95.
Fc1cccc2c1CCC2CNC1CC1 (stereo not shown) [IIf.4, N-[(4-fluoro-2,3-dihydro-1H-inden-1-yl)methyl]cyclopropanamine] showed a chromatographic logP [1] of 0.82.
Compound CC1(C)CC(CNC2CC2)c2ccccc21 (stereo not shown) [IIf.5, N-[(3,3-dimethyl-2,3-dihydro-1H-inden-1-yl)methyl]cyclopropanamine] has a chromatographic logP [1] of 1.12.
For Clc1ccc2c(c1)CCC2CNC1CC1 (stereo not shown) [IIf.6, N-[(5-chloro-2,3-dihydro-1H-inden-1-yl)methyl]cyclopropanamine], the chromatographic logP [1] was 1.11.
Compound Clc1cccc2c1C(CNC1CC1)CC2 (stereo not shown) [IIf.7, N-[(7-chloro-2,3-dihydro-1H-inden-1-yl)methyl]cyclopropanamine] has a chromatographic logP [1] of 0.95.
FC(F)(F)c1ccc2c(c1)C(CNC1CC1)CC2 (stereo not shown) [IIf.8, N-{[6-(trifluoromethyl)-2,3-dihydro-1H-inden-1-yl]methyl}cyclopropanamine] showed a chromatographic logP [1] of 1.25.
For Clc1cc(Cl)c2c(c1)C(CNC1CC1)CC2 (stereo not shown) [IIf.9, N-[(4,6-dichloro-2,3-dihydro-1H-inden-1-yl)methyl]cyclopropanamine], the chromatographic logP [1] was 1.38.
Compound Brc1cccc2c1C(CNC1CC1)CC2 (stereo not shown) [IIf.10, N-[(7-bromo-2,3-dihydro-1H-inden-1-yl)methyl]cyclopropanamine] has a chromatographic logP [1] of 1.08.
In the case of CC1(CNC2CC2)CCCc2ccccc21 (stereo not shown) [IIf.11, N-[(1-methyl-1,2,3,4-tetrahydronaphthalen-1-yl)methyl]cyclopropanamine], the chromatographic logP [1] is reported as 1.1.
For CC1CCC(CNC2CC2)c2ccccc21 (stereo not shown) [IIf.12, N-[(4-methyl-1,2,3,4-tetrahydronaphthalen-1-yl)methyl]cyclopropanamine], the chromatographic logP [1] was 1.22.
With Cc1cc(C)c2c(c1)C(CNC1CC1)CCC2 (stereo not shown) [IIf.13, N-[(5,7-dimethyl-1,2,3,4-tetrahydronaphthalen-1-yl)methyl]cyclopropanamine] the chromatographic logP [1] was 1.75.
COc1cccc2c1CCCC2CNC1CC1 (stereo not shown) [IIf.14, N-[(5-methoxy-1,2,3,4-tetrahydronaphthalen-1-yl)methyl]cyclopropanamine] showed a chromatographic logP [1] of 1.28.
Work on Clc1cccc2c1C(CNC1CC1)CCC2 (stereo not shown) [IIf.15, N-[(8-chloro-1,2,3,4-tetrahydronaphthalen-1-yl)methyl]cyclopropanamine] yielded a chromatographic logP [1] of 1.57.
For c1ccc2c(c1)CCCCC2CNC1CC1 (stereo not shown) [IIf.16, N-(6,7,8,9-tetrahydro-5H-benzo[7]annulen-5-ylmethyl)cyclopropanamine], the chromatographic logP [1] was 1.17.
In the case of c1ccc2c(c1)CSCC2CNC1CC1 (stereo not shown) [IIf.17, N-(3,4-dihydro-1H-isothiochromen-4-ylmethyl)cyclopropanamine], the chromatographic logP [1, 3] is reported as 0.86.
Compound Fc1ccc2c(c1)C(CNC1CC1)CCS2 (stereo not shown) [IIf.18, N-[(6-fluoro-3,4-dihydro-2H-thiochromen-4-yl)methyl]cyclopropanamine] has a chromatographic logP [1, 3] of 1.05.
In the case of Clc1ccc2c(c1)C(CNC1CC1)CCS2 (stereo not shown) [IIf.19, N-[(6-chloro-3,4-dihydro-2H-thiochromen-4-yl)methyl]cyclopropanamine], the chromatographic logP [1, 3] is reported as 1.26.
